pEC50: −log10 of the molar value.
System: mD4-VV surrogate virus
Assay: microbe, parasite or virus in culture
Type: cell-based, mD4/vaccinia hybrid virus
Conditions: for pEC50: Hybrid virus, BSC-1, read-out: mD4 EC50

Compound | pEC50 | % @ 25 uM (mD4) [% @ 25 uM]
CCC(C(=O)Nc1sc(C(N)=O)c(C)c1C(=O)OC)c1ccccc1OC (centres unmarked) [Compound 95, Methyl 2-(2-(2-methoxyphenyl)butanamido)-5-carbamoyl-4-methylthiophene-3-carboxylate] | 4.67 | –
CCC(C(=O)Nc1sc(C(N)=O)c(C)c1C(=O)OC)c1cccc(OC)c1 (centres unmarked) [Compound 96, Methyl 2-(2-(3-methoxyphenyl)butanamido)-5-carbamoyl-4-methylthiophene-3-carboxylate] | – | 56
CCC(C(=O)Nc1sc(C(N)=O)c(C)c1C(=O)OC)c1ccc(OC)cc1 (centres unmarked) [Compound 97, Methyl 2-(2-(4-methoxyphenyl)butanamido)-5-carbamoyl-4-methylthiophene-3-carboxylate] | – | 37
CCC(C(=O)Nc1sc(C(N)=O)c(C)c1C(=O)OC)c1cccc(F)c1 (centres unmarked) [Compound 98, Methyl 2-(2-(3-fluorophenyl)butanamido)-5-carbamoyl-4-methylthiophene-3-carboxylate] | 4.74 | –
CCOC(=O)c1nnsc1NC(=O)C(CC)c1ccccc1 (centres unmarked) [Compound 106, 5-(2-Phenyl-butyrylamino)-[1,2,3]thiadiazole-4-carboxylic acid ethyl ester] | – | 40
CCC(C(=O)Nc1sccc1C(=O)OC)c1ccccc1 (centres unmarked) [Compound 112, Methyl 2-(2-phenylbutanamido)thiophene-3-carboxylate] | – | 59
COC(=O)c1ccsc1NC(=O)N1CCN(c2ccccn2)CC1 [Compound 114, Methyl 2-(4-(pyridin-2-yl)piperazine-1-carboxamido)thiophene-3-carboxylate] | – | 32
CCC(C(=O)Nc1sc(C(N)=O)c(C)c1C(=O)NCc1ccc(Cl)cc1)c1ccccc1 (centres unmarked) [Compound 115, 2-(2-Phenylbutanamido)-N3-(4-chlorobenzyl)-4-methylthiophene-3,5-dicarboxamide] | 4.96 | –
COC(=O)c1c(NC(=O)N2CCN(c3ccccn3)CC2)sc(C(N)=O)c1C [Compound 116, Methyl 2-(4-(pyridin-2-yl)piperazine-1-carboxamido)-5-carbamoyl-4-methylthiophene-3-carboxylate] | – | 30
O=C(Nc1snnc1-c1ccc(C(F)(F)F)cc1)N1CCN(c2ccccn2)CC1 [Compound 118, 4-Pyridin-2-yl-piperazine-1-carboxylic acid [4-(4-trifluoromethyl-phenyl)-[1,2,3]thiadiazol-5-yl]-amide] | 5.40 | –
O=C(NCc1ccccc1)c1nnsc1NC(=O)N1CCN(c2ccccc2)CC1 [Compound 123, 4-Phenyl-piperazine-1-carboxylic acid (4-benzylcarbamoyl-[1,2,3]thiadiazol-5-yl)-amide] | – | 44
Cc1ccc(CNC(=O)c2nnsc2NC(=O)N2CCN(c3ccccn3)CC2)cc1 [Compound 124, 4-Pyridin-2-yl-piperazine-1-carboxylic acid [4-(4-methyl-benzylcarbamoyl)-[1,2,3]thiadiazol-5-yl]-amide] | 4.84 | –
CCOC(=O)c1ncsc1NC(=O)N1CCN(c2ccccn2)CC1 [Compound 127, Ethyl 5-(4-(pyridin-2-yl)piperazine-1-carboxamido)thiazole-4-carboxylate] | 4.53 | –
O=C(NCc1ccccc1)c1ccsc1NC(=O)N1CCN(c2ccccn2)CC1 [Compound 130, N-(3-(Benzylcarbamoyl)thiophen-2-yl)-4-(pyridin-2-yl)piperazine-1-carboxamide] | 4.48 | –
Cc1c(C(N)=O)sc(NC(=O)N2CCN(c3ccccn3)CC2)c1C(=O)NCc1ccccc1 [Compound 131, 2-(4-(pyridin-2-yl)piperazine-1-carboxamido)-N3-benzyl-4-methylthiophene-3,5-dicarboxamide] | 4.50 | –
O=C(Nc1snnc1C(=O)NCc1ccc(Cl)cc1)Oc1ccccc1 [Compound 132, [4-(4-Chloro-benzylcarbamoyl)-[1,2,3]thiadiazol-5-yl]-carbamic acid phenyl ester] | 4.79 | –
CCC(C(=O)Nc1snnc1C(=O)NCc1ccc(Cl)cc1)c1ccccc1 (centres unmarked) [Compound 134, 5-(2-Phenyl-butyrylamino)-[1,2,3]thiadiazole-4-carboxylic acid 4-chloro-benzylamide] | 4.94 | –
CCC(C(=O)Nc1snnc1C(=O)NCc1ccccc1)c1ccccc1 (centres unmarked) [Compound 135, 5-(2-Phenyl-butyrylamino)-[1,2,3]thiadiazole-4-carboxylic acid benzylamide] | 4.73 | –
CCC(C(=O)Nc1snnc1-c1ccccc1F)c1ccccc1 (centres unmarked) [Compound 153, N-[4-(2-Fluoro-phenyl)-[1,2,3]thiadiazol-5-yl]-2-phenyl-butyramide] | 4.99 | –
CCC(C(=O)Nc1snnc1-c1ccc(F)cc1)c1ccccc1 (centres unmarked) [Compound 154, N-[4-(4-Fluoro-phenyl)-[1,2,3]thiadiazol-5-yl]-2-phenyl-butyramide] | 4.49 | –
CCC(C(=O)Nc1snnc1-c1ccccc1)c1ccccc1 (centres unmarked) [Compound 155, 2-Phenyl-N-(4-phenyl-[1,2,3]thiadiazol-5-yl)-butyramide] | 4.79 | –

Compound | pEC50 | % @ 25 uM (mD4) [% @ 25 uM]
CCC(C(=O)Nc1scnc1C(=O)NCc1ccccc1)c1ccccc1 (centres unmarked) [Compound 162, 5-(2-Phenylbutanamido)-N-benzylthiazole-4-carboxamide] | 4.74 | –
CCOC(=O)c1ncsc1NC(=O)C(CC)c1ccccc1 (centres unmarked) [Compound 165, Ethyl 5-(2-phenylbutanamido)thiazole-4-carboxylate] | – | 30.6
O=C(NCc1ccccc1)c1nnsc1NC(=O)N1CCN(c2ccccc2F)CC1 [Compound 169, 4-(2-Fluoro-phenyl)-piperazine-1-carboxylic acid (4-benzylcarbamoyl-[1,2,3]thiadiazol-5-yl)-amide] | 4.49 | –
CCC(C(=O)NC(=O)c1sc(N)c(C(=O)OC)c1C)c1ccc(F)cc1 (centres unmarked) [Compound 174, Methyl 5-(2-(4-fluorophenyl)butanoylcarbamoyl)-2-amino-4-methylthiophene-3-carboxylate] | 4.69 | –
O=C(CCCc1ccccn1)Nc1snnc1C(=O)NCc1ccc(Cl)cc1 [Compound 175, 5-(4-(Pyridin-2-yl)butanamido)-N-(4-chlorobenzyl)-1,2,3-thiadiazole-4-carboxamide] | 4.81 | –
CCC(C(=O)Nc1sc(C(=O)NC(C)c2ccncc2)c(C)c1C(=O)OC)c1ccc(F)cc1 (centres unmarked) [Compound 186, methyl 2-(2-(4-fluorophenyl)butanamido)-4-methyl-5-((1-(pyridin-4-yl)ethyl)carbamoyl)thiophene-3-carboxylate] | 4.70 | –
CCC(C(=O)Nc1sc(C(=O)NCCc2cccnc2)c(C)c1C(=O)OC)c1ccc(F)cc1 (centres unmarked) [Compound 187, methyl 2-(2-(4-fluorophenyl)butanamido)-4-methyl-5-((2-(pyridin-3-yl)ethyl)carbamoyl)thiophene-3-carboxylate] | 4.86 | –
CCC(C(=O)Nc1sc(C(N)=O)c(C)c1C(=O)OC)c1ccc(C)cc1 (centres unmarked) [Compound 188, Methyl 5-carbamoyl-4-methyl-2-(2-(p-tolyl)butanamido)thiophene-3-carboxylate] | 4.19 | –
CCC(C(=O)Nc1sc(C(N)=O)c(C)c1C(=O)OC)c1ccccc1F (centres unmarked) [Compound 189, Methyl 5-carbamoyl-2-(2-(2-fluorophenyl)butanamido)-4-methylthiophene-3-carboxylate] | 4.82 | –
CCC(C(=O)Nc1sc(C(N)=O)c(C)c1C(=O)OC)c1ccc(C(F)(F)F)cc1 (centres unmarked) [Compound 190, methyl 5-carbamoyl-4-methyl-2-(2-(4-(trifluoromethyl)phenyl)butanamido)thiophene-3-carboxylate] | 5.32 | –
CCC(C(=O)Nc1sc(C(N)=O)c(C)c1C(=O)OC)c1ccc(Cl)cc1 (centres unmarked) [Compound 191, Methyl 5-carbamoyl-2-(2-(4-chlorophenyl)butanamido)-4-methylthiophene-3-carboxylate] | 4.94 | –
CCC(C(=O)Nc1sc(C(=O)OC(C)(C)C)c(C)c1C(=O)OC)c1ccc2c(c1)OCO2 (centres unmarked) [Compound 192, 2-tert-butyl 4-methyl 5-(2-(benzo[d][1,3]dioxol-5-yl)butanamido)-3-methylthiophene-2,4-dicarboxylate] | < 4.30 | –
CCC(C(=O)Nc1sc(C(N)=O)c(C)c1C(=O)OC)c1ccc2c(c1)OCO2 (centres unmarked) [Compound 193, Methyl 2-(2-(benzo[d][1,3]dioxol-5-yl)butanamido)-5-carbamoyl-4-methylthiophene-3-carboxylate] | < 4.30 | –
CCC(C(=O)Nc1sc(C(=O)OC(C)(C)C)c(C)c1C(=O)OC)c1cc(F)cc(F)c1 (centres unmarked) [Compound 194, 2-tert-butyl 4-methyl 5-(2-(3,5-difluorophenyl)butanamido)-3-methylthiophene-2,4-dicarboxylate] | < 4.30 | –
CCC(C(=O)Nc1sc(C(N)=O)c(C)c1C(=O)OC)c1cc(F)cc(F)c1 (centres unmarked) [Compound 195, Methyl 2-(2-(3,5-difluorophenyl)butanamido)-5-carbamoyl-4-methylthiophene-3-carboxylate] | 4.59 | –
CCC(C(=O)Nc1sc(C(N)=O)c(C)c1C(=O)OC)c1ccc(C#N)cc1 (centres unmarked) [Compound 197, Methyl 2-(2-(4-cyanophenyl)butanamido)-5-carbamoyl-4-methylthiophene-3-carboxylate] | 4.38 | –
CCC(C(=O)Nc1sc(C(=O)OC(C)(C)C)c(C)c1C(=O)OC)c1ccc(C(F)(F)F)cc1 (centres unmarked) [Compound 198, 2-tert-butyl 4-methyl 5-(2-(4-(trifluoromethyl)phenyl)butanamido)-3-methylthiophene-2,4-dicarboxylate] | < 4.30 | –
CCC(C(=O)Nc1sc(C(=O)N2CCNCC2)c(C)c1C(=O)OC)c1ccc(F)cc1 (centres unmarked) [Compound 201, Methyl 2-[2-(4-fluorophenyl)butanamido]-4-methyl-5-(piperazine-1-carbonyl)thiophene-3-carboxylate] | < 4.60 | –
CCC(C(=O)Nc1sc(C(=O)NCCCNC(=O)OC(C)(C)C)c(C)c1C(=O)OC)c1ccc(F)cc1 (centres unmarked) [Compound 202, Methyl 5-((3-((tert-butoxycarbonyl)amino)propyl)carbamoyl)-2-(2-(4-fluorophenyl)butanamido)-4-methylthiophene-3-carboxylate] | < 4.30 | –
CCC(C(=O)Nc1sc(C(=O)NCCCN)c(C)c1C(=O)OC)c1ccc(F)cc1 (centres unmarked) [Compound 203, Methyl 5-(3-aminopropylcarbamoyl)-2-(2-(4-fluorophenyl)butanamido)-4-methylthiophene-3-carboxylate] | 4.70 | –

From patent US20250295652A1, “Inhibitors of Molluscum Contagiosum Infection and Methods Using the Same” (priority 2021, published 2025)
